Assay results taken from PMC8528861, “Structural and functional analysis of target recognition by the lymphocyte adaptor protein LNK” (Nature Communications, 2021).

What was measured:
Assay in all cases: Thermostability assay
Conditions in all cases: for delta Tm / Tm, plus phosphotyrosine: 10 mM phosphotyrosine; for delta Tm: relative to apo Tm; for Tm, plus phosphotyrosine: protein 30 μM in PBS; for Tm: protein 100 μM, peptide five-fold molar excess, phenyl phosphate 8 mM
R387C LNK SH2 domain = target: T1, R387C LNK SH2 domain (Mus musculus, UniProt O09039, R387C); type: binding
T1 construct: DNA encoding the mouse LNK SH2 domain (residues 324–446) and an N-terminal NusA; NusA (N, cleaved yes); made in house; host or cells: E. coli
T1 sequence (O09039 324-446 R387C): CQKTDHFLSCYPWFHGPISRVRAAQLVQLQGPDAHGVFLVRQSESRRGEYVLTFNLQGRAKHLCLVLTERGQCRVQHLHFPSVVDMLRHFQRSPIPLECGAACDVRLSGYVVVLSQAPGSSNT
Protocol: (§1) Using mouse SH2 domain equivalents of these variants we investigated whether the incorporation of these mutations affected protein stability by measuring their melting point (Tm).
(§2) For peptide and phenyl phosphate experiments, proteins were desalted into 100 mM NaCl, 20 mM Tris (pH 8.0), 2 mM TCEP buffer and diluted to 100 μM. Where peptides were used, a five-fold molar excess of peptide was added to each sample, in phenyl phosphate conditions concentration was 8 mM. For experiments were phosphotyrosine, proteins were diluted to 30 μM in PBS and in phosphate conditions, concentration was 10 mM. Ten mcroliter of each sample was transferred into a capillary and measured from 35 to 95 °C using a Tycho N6T (Nanotemper). Data were analyzed in Prism.

R387H LNK SH2 domain = target: T2, R387H LNK SH2 domain (Mus musculus, UniProt O09039, R387H); type: binding
T2 construct: DNA encoding the mouse LNK SH2 domain (residues 324–446) and an N-terminal NusA; NusA (N, cleaved yes); made in house; host or cells: E. coli
T2 sequence (O09039 324-446 R387H): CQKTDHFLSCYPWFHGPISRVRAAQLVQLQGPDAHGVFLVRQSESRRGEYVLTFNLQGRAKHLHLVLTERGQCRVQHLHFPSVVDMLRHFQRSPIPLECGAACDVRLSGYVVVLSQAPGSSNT
Protocol: as §1, §2

WT LNK SH2 domain = target: T3, WT LNK SH2 domain (Mus musculus, UniProt O09039); type: binding
T3 construct: DNA encoding the mouse LNK SH2 domain (residues 324–446) and an N-terminal NusA; NusA (N, cleaved yes); made in house; host or cells: E. coli (tuner (DE3), BL21(DE3) or C43)
T3 sequence (O09039 324-446): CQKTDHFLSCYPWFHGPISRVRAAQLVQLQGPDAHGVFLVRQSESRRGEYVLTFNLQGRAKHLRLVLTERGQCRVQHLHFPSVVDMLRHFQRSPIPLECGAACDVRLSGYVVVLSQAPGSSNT
Protocol: as §1, §2

V374M LNK SH2 domain = type: binding, mouse
Protocol: as §1, §2

SMILES: N[C@@H](Cc1ccc(OP(=O)(O)O)cc1)C(=O)O [Phosphotyrosine, phosphotyrosine]
- delta Tm (R387C LNK SH2 domain; replicate 1): 5.7 °C
- delta Tm (R387C LNK SH2 domain; replicate 2): 6.5 °C
- delta Tm (R387C LNK SH2 domain; replicate 3): 6.1 °C
- delta Tm (R387C LNK SH2 domain; replicate 4): 6.2 °C
- delta Tm (R387C LNK SH2 domain; replicate 5): 6.4 °C
- Tm, plus phosphotyrosine (R387C LNK SH2 domain; replicate 1): 56.8 °C
- Tm, plus phosphotyrosine (R387C LNK SH2 domain; replicate 2): 57.5 °C
- Tm, plus phosphotyrosine (R387C LNK SH2 domain; replicate 3): 57.1 °C
- Tm, plus phosphotyrosine (R387C LNK SH2 domain; replicate 4): 57.2 °C
- Tm, plus phosphotyrosine (R387C LNK SH2 domain; replicate 5): 57.6 °C
- delta Tm (R387H LNK SH2 domain; replicate 1): 3.9 °C
- delta Tm (R387H LNK SH2 domain; replicate 2): 3.9 °C
- delta Tm (R387H LNK SH2 domain; replicate 3): 3.6 °C
- delta Tm (R387H LNK SH2 domain; replicate 4): 3.4 °C
- delta Tm (R387H LNK SH2 domain; replicate 5): 3.5 °C
- Tm, plus phosphotyrosine (R387H LNK SH2 domain; replicate 1): 55.2 °C
- Tm, plus phosphotyrosine (R387H LNK SH2 domain; replicate 2): 55.2 °C
- Tm, plus phosphotyrosine (R387H LNK SH2 domain; replicate 3): 54.8 °C
- Tm, plus phosphotyrosine (R387H LNK SH2 domain; replicate 4): 54.9 °C
- Tm, plus phosphotyrosine (R387H LNK SH2 domain; replicate 5): 55 °C
- delta Tm (WT LNK SH2 domain; replicate 1): 6.6 °C
- delta Tm (WT LNK SH2 domain; replicate 2): 8.1 °C
- delta Tm (WT LNK SH2 domain; replicate 3): 7.6 °C
- delta Tm (WT LNK SH2 domain; replicate 4): 8.1 °C
- Tm, plus phosphotyrosine (WT LNK SH2 domain; replicate 1): 61.1 °C
- Tm, plus phosphotyrosine (WT LNK SH2 domain; replicate 2): 61.7 °C
- Tm, plus phosphotyrosine (WT LNK SH2 domain; replicate 3): 61.9 °C
- Tm, plus phosphotyrosine (WT LNK SH2 domain; replicate 4): 62.5 °C
- delta Tm (V374M LNK SH2 domain; replicate 1): 3.1 °C
- delta Tm (V374M LNK SH2 domain; replicate 2): 3.2 °C
- delta Tm (V374M LNK SH2 domain; replicate 3): 3.3 °C
- delta Tm (V374M LNK SH2 domain; replicate 4): 3.2 °C
- delta Tm (V374M LNK SH2 domain; replicate 5): 3.4 °C
- Tm, plus phosphotyrosine (V374M LNK SH2 domain; replicate 1): 55 °C
- Tm, plus phosphotyrosine (V374M LNK SH2 domain; replicate 2): 55.1 °C
- Tm, plus phosphotyrosine (V374M LNK SH2 domain; replicate 3): 55.2 °C
- Tm, plus phosphotyrosine (V374M LNK SH2 domain; replicate 4): 55.2 °C
- Tm, plus phosphotyrosine (V374M LNK SH2 domain; replicate 5): 55.2 °C

SMILES: O=P(O)(O)Oc1ccccc1 [Phenyl Phos, phenyl phosphate]
- Tm (R387C LNK SH2 domain; replicate 1): 56.6 °C
- Tm (R387C LNK SH2 domain; replicate 2): 54.9 °C
- Tm (R387C LNK SH2 domain; replicate 3): 54.8 °C
- Tm (R387H LNK SH2 domain; replicate 1): 55.7 °C
- Tm (R387H LNK SH2 domain; replicate 2): 56.0 °C
- Tm (R387H LNK SH2 domain; replicate 3): 56.2 °C
- Tm (WT LNK SH2 domain; replicate 1): 60.6 °C
- Tm (WT LNK SH2 domain; replicate 2): 61.6 °C
- Tm (WT LNK SH2 domain; replicate 3): 60.8 °C
- Tm (V374M LNK SH2 domain; replicate 1): 54.0 °C
- Tm (V374M LNK SH2 domain; replicate 2): 54.3 °C
- Tm (V374M LNK SH2 domain; replicate 3): 54.7 °C
